This is an account of results in ChEMBL document CHEMBL1121606, “Synthesis and beta-adrenergic blocking activity of new aliphatic oxime ethers” (J Med Chem, 1980).

Activity calls are given as the source filed them. The rule behind the calls is not given here.

Common to all, as to assay type: functional, organism-based
The species entered for test [1] is Cavia porcellus. In words: Antagonism of the isoprenaline-induced positive chronotropic effect on the atria of guinea pig; Inactive at 1e-4 mol/L.
The species entered for test [2] is Cavia porcellus. In words: Antagonism of the isoprenaline-induced positive chronotropic effect on the atria of guinea pig at 3e-4 M/l. Particulars: read-out: pA2 (converted).
For test [3], the species on record is Cavia porcellus. The test is described as follows: The apparent pA2 value was measured for beta-2-adrenergic blocking activity on the trachea of guinea pig; Inactive at 3e-4.

`CC(C)(C)NCC(O)CO` (stereo not drawn): in test [1], the pA2 entry was “inactive”.

For `CC(C)NCC(O)CNC(C)C`, in test [2], the Kb is 200 µM. The pA2 entry in test [3] is “inactive”.
